Laboratory results taken from patent US8871789B2, “Method of preventing or treating viral infection” (The United States of America, as represented by the …, priority 2010, dated 2014).
pIC50: −log10 of the molar value. Where two headings read alike, the source gives them in different places.

Tests used:
JMJD2E = target: T1, JMJD2E (Homo sapiens, UniProt B2RXH2); experiment: AlphaLISA assay, JMJD2E histone demethylase inhibition; type: biochemical
T1 sequence (B2RXH2 1-506): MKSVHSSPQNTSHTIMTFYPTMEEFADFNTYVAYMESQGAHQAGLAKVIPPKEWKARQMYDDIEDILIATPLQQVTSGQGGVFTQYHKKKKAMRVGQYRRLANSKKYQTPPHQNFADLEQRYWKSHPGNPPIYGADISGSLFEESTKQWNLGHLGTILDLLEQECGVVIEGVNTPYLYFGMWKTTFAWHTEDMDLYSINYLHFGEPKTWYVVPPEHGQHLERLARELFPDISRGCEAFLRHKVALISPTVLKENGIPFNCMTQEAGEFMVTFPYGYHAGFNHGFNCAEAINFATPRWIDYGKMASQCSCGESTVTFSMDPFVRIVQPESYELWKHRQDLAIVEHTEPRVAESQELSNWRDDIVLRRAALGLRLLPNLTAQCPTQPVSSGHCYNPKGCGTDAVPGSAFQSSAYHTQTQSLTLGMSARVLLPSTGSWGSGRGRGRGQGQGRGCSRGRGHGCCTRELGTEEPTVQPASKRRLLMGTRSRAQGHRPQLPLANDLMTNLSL

HSV-1 [1] = type: cell-based, Balb/c mice; conditions: 2 mM DMOG, 2 mM TCP or ACV, 48 hours; FIG. 11
Experimental: FIG. 18 is a dot plot showing latently infected ganglia that were explanted in the presence of DMSO, ACV (100 mM), or ML324 (50 mM) for 48 hrs. Viral yields were determined from one half of each ganglia at 48 hrs (DMSO, ACV, ML324) and from the other half of each ganglia after drug reversal for an additional 72 hrs (ACV-R, ML324-R) [Wilcoxon matched pairs signed rank test, ACV vs ACV-R n=8, ML324 vs ML324-R n=10]. Data are means±SEM.
FIG. 19 is a dot plot showing viral yields from HSV-1 latently infected trigeminal ganglia that were explanted in the presence of DMSO, or 2 mM DMOG or 50 mM ML324 for 48 hours (DMSO versus DMOG: P=0.0015, Wilcoxon matched-pairs signed rank test; n=12; DMSO versus ML324: P<0.0001; n=20). Data are means±SEM.
Viral yields decrease from HSV-1 latently infected ganglia explanted in the presence of LSD1 or JMJD2 inhibitors (FIG. 11). Balb/c mice were infected with 5×10^6 PFU HSV-1 (strain F) per eye after corneal scarification. Latently infected mice were sacrificed 45 days post clearance of the primary infection and trigeminal ganglia were rapidly explanted into culture in the presence of 2 mM DMOG, 2 mM TCP, or control (DMSO or ACV, acyclovir) for 48 hours. Post explant incubation, the ganglia were homogenized and briefly sonicated. The reactivated viral yield of each ganglia was determined by titering the clarified supernatant on Vero cells. Statistical comparisons were made using Wilcoxon signed rank test (paired ganglia) with a statistical significance of <0.05. Each data point was the result of a single ganglia divided and treated in the presence and absence of DMSO and DMOG or DMSO and TCP. Therefore, a Wilcoxon signed rank test was used to assess differences between each treated and untreated sample. The significant difference between DMSO control and DMOG was p=0.0018. This test used an exact p-value for small sample sizes with an a level of 0.05. n=20. Analyses were made using Prism (V5.0a) and are expressed as the mean+/−s.e.m.

HSV-1 [2] = type: cell-based, mouse; conditions: 100 mM ACV or 50 mM ML324, 48 hours
Experimental: FIG. 20 is a dot plot showing latently infected trigeminal ganglia that were explanted in the presence of DMSO, 100 mM ACV, or 50 mM ML324 for 48 hours. The total number of UL29+ neurons per ganglia is graphed, representing the number of neurons undergoing viral reactivation. Data are means±SEM.

HSV-1 [3] = experiment: Plaque assay of Vero cells infected with HSV-1; type: cell-based; design: # Plaques: dose or concentration left out as unconfirmed; conditions: 12 hours infection, then ACV or ML324 for 48 hours
Experimental: ML324 was ˜75-fold more efficient than DMOG. Additionally, ML324 (i) reduced viral yields in a dose-dependent manner (˜5 logs at 50 mM, FIG. 14); (ii) blocked viral IE gene transcription and reduced viral yields when cells were infected at high multiplicity of infection (MOI; FIGS. 15 and 16); and (iii) suppressed IE gene transcription, even when added at times after infection (>50% reduction at 2 hours after infection; FIG. 17). As further evidence for the efficacy of ML324, cells were infected with HSV to allow for a productive cycle of infection, followed by treatment with DMSO, ACV, or ML324.

[4] = Table 3, JMJD2E, AlphaLISA, in triplicate, read-out: IC50
[5] = Table 2, JMJD2E, AlphaLISA, in triplicate, read-out: IC50

Row | Structure (SMILES) | pIC50 (JMJD2E) | pIC50 (JMJD2E; [4]) | further results
1 | O=C(O)c1ccc(O)c2ncc(N3CCOCC3)cc12 [Compound 11] | 5.76 |  | 
2 | O=C(O)c1ccc(O)c2ncc(C3CCNCC3)cc12 [Compound 12] | 5.88 |  | 
3 | CN1CCN(c2cnc3c(O)ccc(C(=O)O)c3c2)CC1 [Compound 10] | 5.65 |  | 
4 | CN(C)CCCN1CCCN(C(=O)c2cccc(-c3cc(O)c4ncccc4c3)c2)C1 [Compound 9] |  |  | pIC50 (JMJD2E; [5]): 5.82
5 | CN(C)CC1CCN(C2CCN(C(=O)c3cccc(-c4cc(O)c5ncccc5c4)c3)CC2)CC1 [Compound 8] |  |  | pIC50 (JMJD2E; [5]): 6.00
6 | O=C(NCCCN1CCNCC1)c1cccc(-c2cc(O)c3ncccc3c2)c1 [Compound 7] |  |  | pIC50 (JMJD2E; [5]): 5.91
7 | Nc1nc2c(ncn2COCCO)c(=O)[nH]1 [ACV, acyclovir, reference compound] |  |  | viral yield from explanted latently infected ganglia (HSV-1 [1]): No viral yields; isolated UL29+ neurons relative to DMSO (HSV-1 [2]): reduced number; # Plaques (HSV-1 [3]; MOI .001): 1; # Plaques (HSV-1 [3]; MOI .01): 8
8 | CN1CCN(C(=O)c2cccc(-c3cc(O)c4ncccc4c3)c2)CC1 [Compound 6] |  |  | pIC50 (JMJD2E; [5]): 5.37
9 | N[C@@H]1C[C@H]1c1ccccc1 (racemic) [TCP, tranylcypromine] |  |  | viral yield from explanted latently infected ganglia (HSV-1 [1]): decreases
10 | O=C(c1ccc(-c2cc(O)c3ncccc3c2)cc1)N1CCNCC1 [Compound 5] |  |  | pIC50 (JMJD2E; [5]): 5.79
11 | N[C@@H]1CCN(c2cnc3c(O)ccc(C(=O)O)c3c2)C1 [Compound 16] | 5.93 |  | 
12 | NC1CCN(c2cnc3c(O)ccc(C(=O)O)c3c2)CC1 [Compound 13] | 5.80 |  | 
13 | O=C(O)c1ccc(O)c2ncc(N3CC4CNCC4C3)cc12 (stereo not shown) [Compound 17] | 5.83 |  | 
14 | CN(C)CCCNC(=O)c1ccc(-c2cnc3c(O)cccc3c2)cc1 [Compound 3] |  |  | pIC50 (JMJD2E; [5]): 4.92
15 | O=C(O)c1ccc(O)c2ncc(NC3CCNC3)cc12 (stereo not shown) [Compound 15] | 5.75 |  | 
16 | O=C(O)c1ccnc2c(O)cccc12 [Compound 2] |  |  | pIC50 (JMJD2E; [5]): 5.51
17 | O=C(O)c1ccc(O)c2ncc(N3CCCC3)cc12 [Compound 14] | 5.65 |  | 

Now from value to molecule, other results behind:

Row | pIC50 (JMJD2E) | pIC50 (JMJD2E; [4]) | Structure (SMILES) | further results
18 |  | 5.30 | O=C(O)c1ccc(O)c2ncc(N3CCN(Cc4ccccc4)CC3)cc12 [Compound 18] | 
19 |  | 5.68 | O=C(O)c1ccc(O)c2ncc(NCC3CCCN(CCc4ccccc4)C3)cc12 (stereo not shown) [Compound 21] | 
20 |  | 5.33 | CN1CCN(C(=O)c2ccc(-c3cnc4c(O)ccc(C(=O)O)c4c3)cc2)CC1 [Compound 24] | 
21 |  | 5.29 | O=C(O)c1ccc(O)c2ncc(-c3cccc(N4CCOCC4)c3)cc12 [Compound 20] | 
22 | 5.31 |  | NC(=O)c1cccc(-c2cnc3c(O)ccc(C(=O)O)c3c2)c1 [Compound 28] | 
23 |  | 5.44 | O=C(O)c1ccc(O)c2ncc(-c3ccc(C(=O)N4CCNCC4)cc3)cc12 [Compound 23] | 
24 |  | 5.38 | O=C(O)c1ccc(O)c2ncc(-c3ccc(N4CCOCC4)cc3)cc12 [Compound 19] | 
25 |  | 5.33 | O=C(O)c1ccc(O)c2ncc(N3CCCCC3CCc3ccccn3)cc12 (stereo not shown) [Compound 22] | 
26 |  | 5.77 | O=C(O)c1ccc(O)c2ncc(N3CCCN(CCCc4ccncc4)CC3)cc12 [Compound 27] | 
27 |  | 5.68 | O=C(O)c1ccc(O)c2ncc(N3CCCN(C4CCCC4)CC3)cc12 [Compound 26] | 
28 |  | 5.85 | CN(C)CCCNC(=O)c1ccc(-c2cnc3c(O)ccc(C(=O)O)c3c2)cc1 [Compound 25] | 
